Reference: ChEMBL document CHEMBL1201862, “PubChem BioAssay data set” (2004)
The source made the active and inactive calls.

Tests used:
cells = assay type: functional, cell-based
[1] = target: T1, Nuclear receptor subfamily 0 group B member 1 (Homo sapiens, UniProt P51843); assay type: functional, cell-based;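 note: HEK293T cells transfected with SF-1 and DAX-1 plus StAR promoter luciferase reporter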
T1 sequence (P51843 whole entry): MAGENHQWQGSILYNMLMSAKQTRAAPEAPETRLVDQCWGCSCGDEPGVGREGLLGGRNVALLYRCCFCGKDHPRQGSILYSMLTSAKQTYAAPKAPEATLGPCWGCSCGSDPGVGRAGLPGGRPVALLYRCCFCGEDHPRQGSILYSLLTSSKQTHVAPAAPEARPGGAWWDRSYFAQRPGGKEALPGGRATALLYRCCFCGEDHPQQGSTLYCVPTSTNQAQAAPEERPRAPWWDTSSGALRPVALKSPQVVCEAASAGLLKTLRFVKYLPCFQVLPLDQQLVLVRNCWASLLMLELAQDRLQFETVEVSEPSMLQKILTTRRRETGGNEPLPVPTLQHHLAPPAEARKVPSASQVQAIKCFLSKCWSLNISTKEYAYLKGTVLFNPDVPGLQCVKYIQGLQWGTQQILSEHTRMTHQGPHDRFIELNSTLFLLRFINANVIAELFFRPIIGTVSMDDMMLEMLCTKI

Protein skinhead-1 = target: T2, Protein skinhead-1 (Caenorhabditis elegans, UniProt P34707); assay type: functional
T2 sequence (P34707 whole entry): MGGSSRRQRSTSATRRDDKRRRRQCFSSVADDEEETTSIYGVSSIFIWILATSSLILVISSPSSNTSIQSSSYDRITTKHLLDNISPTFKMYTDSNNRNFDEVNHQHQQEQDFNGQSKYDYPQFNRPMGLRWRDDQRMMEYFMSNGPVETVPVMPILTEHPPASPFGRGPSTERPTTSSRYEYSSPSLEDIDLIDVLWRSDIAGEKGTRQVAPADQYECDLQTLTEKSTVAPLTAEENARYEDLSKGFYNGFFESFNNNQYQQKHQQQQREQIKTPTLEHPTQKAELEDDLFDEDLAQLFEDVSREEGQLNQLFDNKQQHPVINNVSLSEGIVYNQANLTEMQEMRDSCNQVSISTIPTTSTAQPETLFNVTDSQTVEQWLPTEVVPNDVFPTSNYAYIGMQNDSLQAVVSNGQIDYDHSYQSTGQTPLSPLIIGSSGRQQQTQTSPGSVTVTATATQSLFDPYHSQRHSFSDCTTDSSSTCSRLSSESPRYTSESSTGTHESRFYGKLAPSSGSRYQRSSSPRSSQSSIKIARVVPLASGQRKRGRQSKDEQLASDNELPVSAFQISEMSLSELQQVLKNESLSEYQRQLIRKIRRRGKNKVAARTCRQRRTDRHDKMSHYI

[2] = cytotoxicity in OVCAR8 ovarian cancer cells, dose response, PAX8 project, cell-based, plate reader, dry powder samples (AID 743197); assay type: functional; settings: OVCAR-8
[3] = NIH:OVCAR-3 ovarian cancer cell cytotoxicity, dose response, PAX8 inhibitor project, plate reader, dry powder samples (AID 743044); assay type: functional, cell-based
Paired box protein Pax-8 = Paired box protein Pax-8 (Homo sapiens, UniProt Q06710); experiment: inhibitors of PAX8-driven TPO luciferase reporter, dose response, RMG-I cells, cherry-pick (AID 687027); assay type: functional, cell-based;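 note: luciferase reporter driven by Pax8 target thyroperoxidase promoter measured by SteadyGlo luminescence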
[4] = IGROV1 ovarian cancer cell cytotoxicity, dose response, PAX8 inhibitor project, plate reader, dry powder samples (AID 743043); assay type: functional, cell-based; settings: IGROV-1
NS3 = NS3 (Hepatitis C virus, UniProt A3EZJ3); experiment: HCV NS3 helicase inhibitor potency, dose response, biochemical, fluorescence polarization, ChemBridge library (AID 743264)
[5] = MC4R antagonists, dose response, counter-screen for LGR2 antagonist project, cell-based, plate reader, cherry pick (AID 743444); assay type: functional;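 note: transfected HEK 293 cells stimulated with alpha-MSH peptide; potency of inhibitors of the alpha-MSH evoked signal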
[6] = HEK293 cell cytotoxicity, dose response, cytotoxicity control, plate reader, cherry-picked samples (AID 743446); assay type: functional, cell-based
[7] = LGR2 antagonists, dose response, cell-based, HEK293, CRE-luciferase reporter, cherry pick, set 2 (AID 743343); assay type: functional;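 note: transfected cells were stimulated with diluted bursicon conditioned medium after compound addition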
[8] = HepG2 cell cytotoxicity, dose response, cytotoxicity control, plate reader, cherry-pick, antagonist series (AID 743416); assay type: functional, cell-based
[9] = A549 cell cytotoxicity, dose response, cytotoxicity control, plate reader, cherry-pick, antagonist series (AID 743412); assay type: functional, cell-based
[10] = YAP1 pathway inhibition via CTGF transcript levels, dose response, cell-based, DLD1 colon cancer, RT-qPCR, cherry-pick (AID 1053122); assay type: functional; settings: Cancer cell lines
[11] = P. falciparum Dd2 growth inhibitors, dose response, SYBR Green, dry powder samples, set 9 (AID 1159568); assay type: functional, cell-based
[12] = target: Disintegrin and metalloproteinase domain-containing protein 17 (Homo sapiens, UniProt P78536); experiment: exosite inhibitors of ADAM17, dose response, biochemical (AID 743260)
[13] = target: T3, Carboxy-terminal domain RNA polymerase II polypeptide A small phosphatase 1 (Homo sapiens, UniProt Q9GZU7); experiment: inhibitors of CTDSP1, concentration-response testing, biochemical assay, absorbance-based, actives from ultra-high-throughput screening (AID 540297); assay type: functional
T3 sequence (Q9GZU7 whole entry): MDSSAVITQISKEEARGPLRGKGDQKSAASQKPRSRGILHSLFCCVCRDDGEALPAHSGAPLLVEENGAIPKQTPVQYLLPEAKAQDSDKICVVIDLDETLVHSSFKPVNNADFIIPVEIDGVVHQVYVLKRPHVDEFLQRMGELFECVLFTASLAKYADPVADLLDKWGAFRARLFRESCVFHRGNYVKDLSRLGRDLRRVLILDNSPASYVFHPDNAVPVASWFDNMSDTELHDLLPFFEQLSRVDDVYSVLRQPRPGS

[14] = target: T4, Polyadenylate-binding protein 1 (Homo sapiens, UniProt P11940); experiment: PABP1 MLLE–PAM2 binding inhibitor potency, dose response, biochemical, fluorescence polarization, FITC-PAM2 peptide (AID 602259); assay type: functional; settings: read-out: IC50_Mean
[15] = target: Long-chain-fatty-acid--AMP ligase FadD28 (Mycobacterium tuberculosis, UniProt P9WQ59); experiment: Fluorescence polarization aasay to screen for inhibitors that compete for the binding of FadD28 to a bisubstrate Measured in Biochemical System Using Plate Reader - 2147-01_Inhibitor_Dose_CherryPick_Activity.; assay type: functional, Mycobacterium tuberculosis H37Rv
[16] = target: T4, Polyadenylate-binding protein 1; experiment: PABP1 MLLE–PAM2 interaction inhibitors, dose response, miRNA deadenylation inhibitor project, biochemical, fluorescence polarization, Cy5-PAM2 peptide, secondary (AID 602260); assay type: functional; settings: read-out: IC50_Mean
Vero = Vero cell cytotoxicity, cytotoxicity control for flavivirus capping enzyme inhibitors (AID 588742); assay type: functional; settings: Chlorocebus sabaeus
Genome polyprotein = Genome polyprotein (dengue virus type 2, UniProt P29990); experiment: Dengue-2 NS5 methyltransferase inhibitors, primary screen, biochemical, confirmation dose response (AID 588689); assay type: functional
Chain of Genome polyprotein (P29990 2492-3391 limits assumed): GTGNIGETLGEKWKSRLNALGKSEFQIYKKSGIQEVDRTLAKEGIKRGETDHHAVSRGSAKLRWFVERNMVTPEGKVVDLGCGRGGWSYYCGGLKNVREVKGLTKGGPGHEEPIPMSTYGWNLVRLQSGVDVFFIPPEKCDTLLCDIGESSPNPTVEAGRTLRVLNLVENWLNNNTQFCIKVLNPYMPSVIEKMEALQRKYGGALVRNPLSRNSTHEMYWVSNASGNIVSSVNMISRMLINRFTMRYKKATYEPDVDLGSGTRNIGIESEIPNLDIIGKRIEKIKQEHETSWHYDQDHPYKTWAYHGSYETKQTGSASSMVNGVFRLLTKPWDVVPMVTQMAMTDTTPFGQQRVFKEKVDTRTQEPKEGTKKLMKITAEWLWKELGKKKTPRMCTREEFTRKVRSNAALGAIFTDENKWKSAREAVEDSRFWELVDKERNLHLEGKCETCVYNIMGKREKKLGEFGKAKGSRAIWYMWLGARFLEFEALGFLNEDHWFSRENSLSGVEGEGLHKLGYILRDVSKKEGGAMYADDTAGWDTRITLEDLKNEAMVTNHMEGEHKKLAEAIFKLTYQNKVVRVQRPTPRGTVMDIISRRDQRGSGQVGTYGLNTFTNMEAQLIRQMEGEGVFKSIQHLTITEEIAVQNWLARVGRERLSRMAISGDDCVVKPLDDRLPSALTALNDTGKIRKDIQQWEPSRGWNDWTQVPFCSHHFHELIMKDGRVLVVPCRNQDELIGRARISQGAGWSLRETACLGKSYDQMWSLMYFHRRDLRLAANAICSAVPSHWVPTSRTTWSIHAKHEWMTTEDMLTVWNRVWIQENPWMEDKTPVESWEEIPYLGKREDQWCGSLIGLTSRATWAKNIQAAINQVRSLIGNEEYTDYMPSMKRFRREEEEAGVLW

Chain of Paired box protein Pax-8 (Q06710 whole entry): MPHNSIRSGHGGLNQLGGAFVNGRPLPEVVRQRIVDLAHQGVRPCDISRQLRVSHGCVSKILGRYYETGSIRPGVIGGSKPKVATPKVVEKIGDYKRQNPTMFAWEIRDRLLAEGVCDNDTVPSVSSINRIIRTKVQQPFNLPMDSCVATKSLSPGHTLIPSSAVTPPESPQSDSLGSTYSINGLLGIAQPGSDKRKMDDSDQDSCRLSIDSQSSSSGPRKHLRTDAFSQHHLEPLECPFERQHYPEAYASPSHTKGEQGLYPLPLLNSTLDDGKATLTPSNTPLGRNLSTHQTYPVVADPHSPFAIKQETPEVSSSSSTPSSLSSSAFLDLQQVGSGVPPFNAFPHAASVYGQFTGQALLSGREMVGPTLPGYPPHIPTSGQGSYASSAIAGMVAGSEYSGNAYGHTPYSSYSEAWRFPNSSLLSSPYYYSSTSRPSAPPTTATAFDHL
T4 sequence (P11940 whole entry): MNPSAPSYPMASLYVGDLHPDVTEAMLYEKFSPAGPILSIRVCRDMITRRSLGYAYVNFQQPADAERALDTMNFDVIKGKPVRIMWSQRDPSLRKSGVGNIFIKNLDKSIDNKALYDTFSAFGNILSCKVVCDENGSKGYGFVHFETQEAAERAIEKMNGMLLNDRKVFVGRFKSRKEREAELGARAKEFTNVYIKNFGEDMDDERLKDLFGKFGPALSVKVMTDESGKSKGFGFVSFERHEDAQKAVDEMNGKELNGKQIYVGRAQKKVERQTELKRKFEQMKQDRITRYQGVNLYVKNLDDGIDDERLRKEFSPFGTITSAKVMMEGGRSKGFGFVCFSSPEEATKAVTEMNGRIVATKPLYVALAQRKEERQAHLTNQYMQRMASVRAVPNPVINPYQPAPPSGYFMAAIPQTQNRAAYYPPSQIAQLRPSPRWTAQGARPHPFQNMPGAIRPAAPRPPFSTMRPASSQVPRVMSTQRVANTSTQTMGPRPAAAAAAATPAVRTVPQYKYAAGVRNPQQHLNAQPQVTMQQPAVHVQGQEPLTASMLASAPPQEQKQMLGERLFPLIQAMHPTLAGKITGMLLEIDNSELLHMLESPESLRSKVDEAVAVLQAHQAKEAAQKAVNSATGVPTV
Chain of NS3 (A3EZJ3 whole entry): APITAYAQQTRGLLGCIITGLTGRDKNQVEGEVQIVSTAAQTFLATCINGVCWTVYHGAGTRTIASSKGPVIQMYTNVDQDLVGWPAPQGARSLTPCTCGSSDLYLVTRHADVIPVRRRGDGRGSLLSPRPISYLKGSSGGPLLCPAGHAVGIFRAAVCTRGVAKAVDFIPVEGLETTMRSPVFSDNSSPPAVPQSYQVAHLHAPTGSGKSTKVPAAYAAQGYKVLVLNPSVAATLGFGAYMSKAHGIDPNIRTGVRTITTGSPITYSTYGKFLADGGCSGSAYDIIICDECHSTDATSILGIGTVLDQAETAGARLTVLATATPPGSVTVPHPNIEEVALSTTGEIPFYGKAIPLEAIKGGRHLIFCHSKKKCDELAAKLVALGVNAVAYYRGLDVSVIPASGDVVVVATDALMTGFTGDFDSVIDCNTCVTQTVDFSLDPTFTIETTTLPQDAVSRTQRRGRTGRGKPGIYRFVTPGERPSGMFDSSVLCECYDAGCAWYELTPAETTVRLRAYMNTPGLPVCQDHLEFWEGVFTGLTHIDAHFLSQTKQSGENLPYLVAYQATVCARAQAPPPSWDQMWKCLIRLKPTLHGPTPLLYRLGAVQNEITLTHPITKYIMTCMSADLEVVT
Chain of Long-chain-fatty-acid--AMP ligase FadD28 (P9WQ59 whole entry): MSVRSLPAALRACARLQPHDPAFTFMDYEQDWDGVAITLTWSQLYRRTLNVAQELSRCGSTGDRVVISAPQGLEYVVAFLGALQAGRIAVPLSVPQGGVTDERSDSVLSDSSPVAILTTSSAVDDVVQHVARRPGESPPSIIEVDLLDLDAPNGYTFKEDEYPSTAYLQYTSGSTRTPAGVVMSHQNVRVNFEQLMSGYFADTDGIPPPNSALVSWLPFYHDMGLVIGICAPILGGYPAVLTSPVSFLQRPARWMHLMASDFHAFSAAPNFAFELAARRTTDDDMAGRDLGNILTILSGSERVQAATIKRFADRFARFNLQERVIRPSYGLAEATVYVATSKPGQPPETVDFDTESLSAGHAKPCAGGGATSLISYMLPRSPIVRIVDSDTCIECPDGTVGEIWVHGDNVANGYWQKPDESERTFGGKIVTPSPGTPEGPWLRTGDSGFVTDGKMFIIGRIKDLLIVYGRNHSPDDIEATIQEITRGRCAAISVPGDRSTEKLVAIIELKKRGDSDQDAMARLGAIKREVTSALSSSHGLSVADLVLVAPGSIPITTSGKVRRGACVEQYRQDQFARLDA
Chain of Disintegrin and metalloproteinase domain-containing protein 17 (P78536 whole entry, the tested form may be a part): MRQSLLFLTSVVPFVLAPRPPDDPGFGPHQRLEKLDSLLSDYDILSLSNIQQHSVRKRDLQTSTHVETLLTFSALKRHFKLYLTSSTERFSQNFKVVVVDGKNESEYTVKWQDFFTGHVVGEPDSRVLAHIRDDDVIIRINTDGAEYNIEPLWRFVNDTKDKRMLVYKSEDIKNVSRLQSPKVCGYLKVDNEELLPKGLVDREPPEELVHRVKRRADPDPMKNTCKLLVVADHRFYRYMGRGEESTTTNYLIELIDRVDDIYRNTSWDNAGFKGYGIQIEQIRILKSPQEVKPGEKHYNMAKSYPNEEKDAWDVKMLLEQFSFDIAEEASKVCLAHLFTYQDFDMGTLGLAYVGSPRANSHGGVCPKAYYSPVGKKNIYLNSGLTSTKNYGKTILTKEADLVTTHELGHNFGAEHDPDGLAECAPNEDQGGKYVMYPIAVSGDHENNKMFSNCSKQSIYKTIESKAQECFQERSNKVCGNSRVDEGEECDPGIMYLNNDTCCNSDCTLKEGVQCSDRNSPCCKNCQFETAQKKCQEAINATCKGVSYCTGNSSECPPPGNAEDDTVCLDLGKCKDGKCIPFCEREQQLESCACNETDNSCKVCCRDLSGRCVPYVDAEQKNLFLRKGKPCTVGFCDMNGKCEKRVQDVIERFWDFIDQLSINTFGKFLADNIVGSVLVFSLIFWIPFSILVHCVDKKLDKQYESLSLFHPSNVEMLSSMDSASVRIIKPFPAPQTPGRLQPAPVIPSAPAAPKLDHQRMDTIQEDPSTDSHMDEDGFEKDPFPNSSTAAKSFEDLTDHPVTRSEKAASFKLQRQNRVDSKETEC

## Clc1cccc(-c2nc3ccc(Br)cn3c2Cc2ccccc2)c1
cells
  IC50: > 67.5 µM (inactive)
[1]
  IC50: > 67.5 µM (inactive)
Protein skinhead-1
  IC50: > 100 µM (inactive)

## C[C@@H]1CCCCO[C@H](CN(C)S(=O)(=O)c2ccccc2)[C@H](C)CN([C@@H](C)CO)C(=O)c2cc(NS(=O)(=O)c3ccc(Cl)cc3)ccc2O1
[2]
  AC50: > 70 µM (inactive)
[3]
  AC50: 46.7 µM (active)
Paired box protein Pax-8
  AC50: 6.18 µM (active)

## O=C(C[C@@H]1CC[C@@H]2[C@H](COC[C@H](O)CN2Cc2ccc3c(c2)OCO3)O1)Nc1ccc(-c2ccccc2)cc1
[4]
  AC50: 41.8 µM (active)
Paired box protein Pax-8
  AC50: 9.11 µM (active)

## CC(=O)N(C)C1=C(Cl)C(=O)c2ccccc2C1=O
NS3
  IC50: 20.4 µM (inactive)

## O=C(Nc1ccc(Cl)cc1)c1ccc2c(c1)OCCO2
NS3
  IC50: 76.9 µM (active)

## C[C@H]1CN([C@@H](C)CO)C(=O)c2cc(NC(=O)Nc3ccc(C(F)(F)F)cc3)ccc2O[C@H]1CN(C)S(=O)(=O)c1cccs1
[5]
  AC50: 23.1 µM (active)
[6]
  AC50: 29.1 µM (active)
[7]
  AC50: 32.4 µM (active)
[8]
  AC50: > 52 µM (inactive)
[9]
  AC50: 18 µM (active)

## C[C@H]1CN([C@@H](C)CO)C(=O)c2cc(C#Cc3ccccc3)cnc2O[C@H]1CN(C)C(=O)c1ccccc1
[10]
  AC50: 17.8 µM (active)
[11]
  AC50: 1.99 µM (active)

## C/C(=N\N=C(/N)SC1CC(=O)N(c2ccccc2)C1=O)c1cccs1 (centres undefined)
[12]
  IC50: > 69.5 µM (inactive)

## O=C(O)c1ccc2c(c1)C(=O)/C(=C/c1ccccc1)C2=O
[13]
  IC50: 3.5 µM (active)
[14]
  IC50: > 66 µM (inactive)
[15]
  AC50: 37.7 µM (active)
[16]
  IC50: > 66 µM (inactive)
Vero
  CC50: > 40 µM (active)
Genome polyprotein
  IC50: 12.2 µM (active)
